Laboratory results: the NIST ThermoML archive (doi:10.1016/j.jct.2017.09.022)

Conditions: 101.33 kPa, Crystal, Small (less than 1 g) adiabatic calorimetry

C[C@@H](O)[C@H](N)C(=O)O [L-threonine]
Conditions	molar entropy [J/K/mol]
5 K	0.02162
10 K	0.1746
15 K	0.6735
20 K	1.713
25 K	3.326
30 K	5.488
35 K	8.065
40 K	10.89
45 K	13.89
50 K	17.13
60 K	23.7
70 K	30.6
80 K	37.33
90 K	43.98
100 K	50.55
110 K	57.04
120 K	63.44
130 K	69.68
140 K	75.91
150 K	82.06
160 K	88.05
170 K	93.95
180 K	99.86
190 K	105.59
200 K	111.33
210 K	116.9
220 K	122.47
230 K	128.04
240 K	133.45
250 K	138.85
260 K	144.26
270 K	149.58
280 K	154.82
290 K	160.14
298.15 K	164.38
300 K	165.29
310 K	170.53
320 K	175.6
330 K	180.67
340 K	185.75
350 K	190.73
360 K	195.72
370 K	200.71
